Test results reported in article PMC7144554, “2-(Arylamino)-6-(trifluoromethyl)nicotinic Acid Derivatives: New HIV-1 RT Dual Inhibitors Active on Viral Replication” (Molecules, 2020).

Columns and labels:
[1] = molecular target: T1, HIV-1 RT-associated RNase H activity (wt RT) (Human immunodeficiency virus type 1 group M subtype B, UniProt P04585); assay: HIV-1 DNA polymerase-independent RNase H activity, wt RT; format: biochemical; details: for IC50: RNase H IC50, wt RT; for percentage in parenthesis in presence of the highest concentration of inhibitor tested (RNase H) / RNase H IC50: wt RT
T1 construct: RT is a heterodimeric (p66/p51) multifunctional enzyme; made in house; host or cells: Escherichia coli strain M15
Protocol: p6HRT-prot vector was kindly provided by Dr. Stuart Le Grice Laboratory. Heterodimeric RT was expressed essentially as described. Briefly, Escherichia coli strain M15 containing the p6HRT-prot vector were grown up to an OD600 of 0.7 and induced with isopropyl β-D-1-thiogalactopyranoside (IPTG) 1.7 mM for 4 h. Cell pellets were resuspended in Lysis buffer (50 mM sodium phosphate pH 7.8, 0.5 mg/mL lysozyme), incubated on ice for 20 min, added 0.3 M final NaCl, sonicated and centrifuged at 30,000× g for 1 h. The supernatant was loaded into a Ni^2+-sepharose column pre-equilibrated with loading buffer (50 mM sodium phosphate pH 7.8, 0.3 M NaCl, 10% glycerol, 10 mM imidazole) and washed thoroughly with wash buffer (50 mM sodium phosphate pH 6.0, 0.3 M NaCl, 10% glycerol, 80 mM imidazole). RT was gradient-eluted with elute buffer (wash buffer with 0.5 M imidazole). Fractions were collected, protein purity was checked by SDS-PAGE and found to be higher than 90%. RT containing fractions were pooled and diluted 1:1 with dilute buffer (50 mM sodium phosphate pH 7.0, 10% glycerol) then loaded into a Hi-trap Heparine HP GE (Healthcare Lifescience) pre-equilibrated with 10-column volume of loading buffer 2 (50 mM sodium phosphate pH 7.0, 10% glycerol, 150 mM NaCl). Column was then washed with loading buffer 2 and RT was gradient-eluted with elute buffer 2 (50 mM sodium phosphate pH 7.0, 10% glycerol, 150 mM NaCl). Fractions were collected, protein was dialyzed and stored in buffer containing 50 mM Tris HCl pH 7.0, 25 mM NaCl, 1 mM EDTA, 50% glycerol. Catalytic activities and protein concentration were determined. Enzyme-containing fractions were pooled and aliquots were stored at −80 °C.
The RT-associated RNase H activity of wt and mutated HIV RTs was measured as described, in 100 µL reaction volume containing 50 mM Tris HCl pH 7.8, 6 mM MgCl2, 1 mM dithiothreitol (DTT), 80 mM KCl, hybrid RNA/DNA (5’-[…]-3’-Fluorescein, 5’-[…]-3’-Dabcyl), and different amounts of enzymes according to a linear range of dose-response curve—20 ng of wt RT; 50 ng K103N RT; 100 ng V108A RT; 4 ng Y181C RT; 100 ng Q475A RT; 100 ng A502F RT. The reaction mixture was incubated for 1 h at 37 °C, the reaction was stopped by addition of EDTA and products were measured with a Victor 3 (Perkin) at 490/528 nm.

[2] = system: HIV-1 IIIB strain; assay: Antiviral assay, HIV-1 replication in TZMbl cells (luciferase); format: cell-based; details: TZMbl cells; for EC50: Human immunodeficiency virus 1, TZM-bl, read-out: HIV-1 EC50 TZMbl Cells
Protocol: Drug-mediated inhibition of virus-induced cytotoxicity was assayed in TZM-BL cells. […] Serial dilutions of drugs were added immediately after infection. Luciferase activity was measured as reported [67]. Two days after infection, the culture medium was removed from each well and 100 µl of Bright Glo reagent (Promega, Luis Obispo, CA) was added to the cells for measurement of luminescence using a Victor 2 luminometer (Perkin). […] Cell viability in CEM cells was quantified 5 days after infection with the MTT-dye reduction method.

[3] = Cytotoxicity in TZMbl cells; format: cell-based; details: human
[4] = Cell viability in CEM cells (MTT); format: cell-based; details: human, MTT, 5 days
Protocol: Drug-mediated inhibition of virus-induced cytotoxicity was assayed in TZM-BL cells. Triplicate wells of 96-well plates containing 1 × 10^4 TZMbl cells were infected with HIV-1 IIIB strain at a multiplicity of infection of 0.1. Serial dilutions of drugs were added immediately after infection. Luciferase activity was measured as reported. Two days after infection, the culture medium was removed from each well and 100 µl of Bright Glo reagent (Promega, Luis Obispo, CA) was added to the cells for measurement of luminescence using a Victor 2 luminometer (Perkin). The 50% effective concentration (EC50) was defined as the concentration that caused a 50% reduction of luciferase activity (relative light units) compared to virus control wells. Cell viability in CEM cells was quantified 5 days after infection with the MTT-dye reduction method.

Structure (SMILES) | IC50 [1] [µM] | EC50 ([2]; HIV-1 IIIB) [µM] | CC50 [3] [µM] | CC50 at 5 days [4] [µM] | melting point [°C] | percentage in parenthesis in presence of the highest concentration of inhibitor tested (RNase H) [1] | SI (selectivity index) [2] | RNase H IC50 [1] | HIV-1 EC50 TZMbl Cells ([2]; HIV-1 IIIB)
Cc1ccc(Cl)cc1Nc1nc(C(F)(F)F)ccc1C(=O)Nc1cccnc1 [Compound 27] | 25 ± 4.9 | > 5.8 | 5.8 ± 0.8 | 16.2 |  |  |  |  | 
Cc1ccc(Cl)cc1Nc1nc(C(F)(F)F)ccc1C(=O)NCc1ccc(F)cc1 [Compound 41, 2-((5-Chloro-2-methylphenyl)amino)-N-(4-fluorobenzyl)-6-(trifluoromethyl)nicotinamide] | 23.3 ± 3.1 | > 6 | 6 ± 0.6 | 11.6 |  |  |  |  | 
Cc1ccc(Cl)cc1Nc1nc(C(F)(F)F)ccc1C(=O)NCc1ccc(C(F)(F)F)cc1 [Compound 42, 2-((5-Chloro-2-methylphenyl)amino)-6-(trifluoromethyl)-N-(4-(trifluoromethyl)benzyl)nicotinamide] | 21.9 ± 0.2 | > 3.6 | 3.6 ± 1.2 | 5 | 170 to 171 |  |  |  | 
Cc1ccc(Cl)cc1Nc1nc(C(F)(F)F)ccc1C(=O)NCc1ccccc1Cl [Compound 38, N-(2-chlorobenzyl)-2-((5-chloro-2-methylphenyl)amino)-6-(trifluoromethyl)nicotinamide] | 19.4 ± 1.1 | > 5.7 | 5.7 ± 0.7 | 12.5 |  |  |  |  | 
COc1ccc(NC(=O)c2ccc(C(F)(F)F)nc2Nc2cc(Cl)ccc2C)cc1Cl [Compound 32] | > 100 |  |  |  |  | >100 (100%) |  |  | 
Cc1ccc(Cl)cc1Nc1nc(C(F)(F)F)ccc1C(=O)N1CCN(c2ccccc2)CC1 [Compound 48, (2-((5-Chloro-2-methylphenyl)amino)-6-(trifluoromethyl)pyridin-3-yl)(4-phenylpiperazin-1-yl)methanone] | > 100 |  |  |  | 118 to 120 | >100 (100%) |  |  | 
Cc1ccc(Cl)cc1Nc1nc(C(F)(F)F)ccc1C(=O)Oc1ccccc1Cl [Compound 11] | > 100 |  |  |  |  | 92% |  |  | 
COc1cc(NC(=O)c2ccc(C(F)(F)F)nc2Nc2cc(Cl)ccc2C)cc(OC)c1OC [Compound 36] | 19.4 ± 1.5 | 1.8 ± 0.6 | 2.2 ± 0.4 | 10.2 |  |  | 1.2 |  | 
Cc1cccc(NC(=O)c2ccc(C(F)(F)F)nc2Nc2cc(Cl)ccc2C)c1 [Compound 29] | 8.9 ± 0.1 | 2.5 ± 0.4 | 3.9 ± 0.9 | 6.3 |  |  | 1.6 |  | 
Cc1ccc(Cl)cc1Nc1nc(C(F)(F)F)ccc1C(=O)Nc1cccc(Cl)c1 [Compound 30] | 4 ± 2.2 | > 3.9 | 3.9 ± 0.9 | 8.4 |  |  |  |  | 
CCOC(=O)CNC(=O)c1ccc(C(F)(F)F)nc1Nc1cc(Cl)ccc1C [Compound 26, Ethyl 2-(2-((5-chloro-2-methylphenyl)amino)-6-(trifluoromethyl)nicotinamido)acetate] | > 100 |  |  |  | 128 to 130 | >100 (100%) |  |  | 
Cc1ccc(Cl)cc1Nc1nc(C(F)(F)F)ccc1C(=O)Oc1c(Cl)cc(Cl)cc1Cl [Compound 15] | 31.8 ± 3.5 |  |  |  |  |  |  |  | 
CSc1ccc(NC(=O)c2ccc(C(F)(F)F)nc2Nc2cc(Cl)ccc2C)cc1 [Compound 28, 2-((5-Chloro-2-methylphenyl)amino)-N-(4-(methylthio)phenyl)-6-(trifluoromethyl)nicotinamide] | 5.9 ± 0.9 |  |  |  |  |  |  |  | 
Cc1ccc(Cl)cc1Nc1nc(C(F)(F)F)ccc1C(=O)Oc1ccc(O)cc1 [Compound 18, 4-Hydroxyphenyl 2-((5-chloro-2-methylphenyl)amino)-6-(trifluoromethyl)nicotinate] | 20 ± 1.3 |  |  |  | 184 to 186 |  |  |  | 
COc1cc(OC(=O)c2ccc(C(F)(F)F)nc2Nc2cc(Cl)ccc2C)cc(OC)c1OC [Compound 22, 3,4,5-Trimethoxyphenyl 2-((5-chloro-2-methylphenyl)amino)-6-(trifluoromethyl)nicotinate] | 17.3 ± 1.3 |  |  |  | 138 to 140 |  |  |  | 
Cc1ccc(Cl)cc1Nc1nc(C(F)(F)F)ccc1C(N)=O [Compound 6] | > 100 |  |  |  |  | 87% |  | completely inactive | 
COc1cc(NC(=O)c2ccc(C(F)(F)F)nc2Nc2cc(Cl)ccc2C)cc(OC)c1 [Compound 34] | 17.5 ± 3.9 | 2 ± 0.3 | 5.3 ± 0.6 | 10.4 |  |  | 2.6 |  | 
Cc1ccc(Cl)cc1Nc1nc(C(F)(F)F)ccc1C(=O)NCc1ccc(Cl)c(Cl)c1 [Compound 46, 2-((5-Chloro-2-methylphenyl)amino)-N-(3,4-dichlorobenzyl)-6-(trifluoromethyl)nicotinamide] | 25.6 ± 3.4 | > 6.3 | 6.3 ± 1.3 | 10.6 | 179 to 180 |  |  |  | 
COc1ccc(CNC(=O)c2ccc(C(F)(F)F)nc2Nc2cc(Cl)ccc2C)cc1 [Compound 43, 2-((5-Chloro-2-methylphenyl)amino)-N-(4-methoxybenzyl)-6-(trifluoromethyl)nicotinamide] | 30.4 ± 3.9 | > 10 | 13.2 ± 1.3 | 20 |  |  |  |  | 
Cc1ccc(Cl)cc1Nc1nc(C(F)(F)F)ccc1C(=O)NO [Compound 25, 2-((5-Chloro-2-methylphenyl)amino)-N-hydroxy-6-(trifluoromethyl)nicotinamide] | 0.77 ± 0.06 | > 10 | 14 ± 2.8 | 35 | 154 to 155 |  |  |  | inactive
COc1cccc(OC(=O)c2ccc(C(F)(F)F)nc2Nc2cc(Cl)ccc2C)c1 [Compound 19] | > 100 |  |  |  |  | 80% |  |  | 
Cc1ccc(Cl)cc1Nc1nc(C(F)(F)F)ccc1C(=O)Oc1cccc(Cl)c1 [Compound 12] | > 100 |  |  |  |  | 98% |  |  | 
Cc1ccc(Cl)cc1Nc1nc(C(F)(F)F)ccc1C(=O)Nc1ccc(C(F)(F)F)cc1 [Compound 37] | 7.8 ± 1.2 | > 2.2 | 2.2 ± 0.2 | 4.3 |  |  |  |  | 
Cc1ccc(CNC(=O)c2ccc(C(F)(F)F)nc2Nc2cc(Cl)ccc2C)cc1 [Compound 44, 2-((5-Chloro-2-methylphenyl)amino)-N-(4-methylbenzyl)-6-(trifluoromethyl)nicotinamide] | 21.3 ± 0.5 | > 1.1 | 1.1 | 3.5 |  |  |  |  | 
Cc1ccc(Cl)cc1Nc1nc(C(F)(F)F)ccc1C(=O)Nc1ccc(Cl)cc1Cl [Compound 31] | 8.8 ± 0.5 | > 4.7 | 4.7 ± 1.7 | 7.8 |  |  |  |  | 
COc1ccc(OC(=O)c2ccc(C(F)(F)F)nc2Nc2cc(Cl)ccc2C)cc1OC [Compound 20, 3,4-Dimethoxyphenyl-2-((5-chloro-2-methylphenyl)amino)-6-(trifluoromethyl)nicotinate] | 21 ± 11 |  |  |  |  |  |  |  | 
Cc1ccc(Cl)cc1Nc1nc(C(F)(F)F)ccc1C(=O)Oc1ccc(Cl)cc1Cl [Compound 14] | > 100 |  |  |  |  | 98% |  | abolished the activity | 
COc1ccc(NC(=O)c2ccc(C(F)(F)F)nc2Nc2cc(Cl)ccc2C)cc1OC [Compound 35] | 22.4 ± 4 |  |  |  |  |  |  |  | 
COc1cccc(NC(=O)c2ccc(C(F)(F)F)nc2Nc2cc(Cl)ccc2C)c1 [Compound 33] | > 100 |  |  |  |  | 54% |  | abolished the activity | 
